The subject of one data set is IL-6. In words: T1165 cell proliferation assay, IL-6. It counts as cell-based. On the procedure:
CTLL2 cells are cultured in the presence of 5 u/ml and 10 u/ml of IL-2 (FIG. 10A) and 2.5 ng/ml and 5 ng/ml of IL-15 (FIG. 10B) in the presence of increasing concentration of BNZ132-PEG-130. T1165 cells are cultured with 0.1 ng/ml of IL-6 (FIG. 10C) and increasing concentration of BNZ132-PEG-130. […] BNZ132-1 was conjugated to BNZ130 via a PEG24 linker. The name of the bi-antagonist peptide is BNZ132-PEG-130. FIG. 10A and FIG. 10B show the results of BNZ132-PEG-130 in IL-2 (FIG. 10A) and IL-15 (FIG. 10B) CTLL2 proliferation assay. Cells were washed and incubated with IL-2 (5 and 10 units/ml), IL-15 (2.5 and 5 ng/ml) in the presence or absence of BNZ132-PEG-130 (0.1-10 μM). Cells were then pulsed with the WST-1 reagent to measure the proliferative response for the next 6 hr (OD450). […] Cells are washed and incubated with IL-6 (0.1 ng/ml) in the presence or absence of BNZ132-PEG-130 (0.1-10 μM) for 24 hours. Cells were then pulsed with WST-1 reagent for the following 6 hr to measure OD450. The BNZ130-1 polypeptide as presented in Table 2, above, is tested for its activity in inhibiting IL-6 activity. T1165 cells that are dependent on human or mouse IL-6 for their growth in vitro are selected. The cell line is cultured in the absence of IL-6, In the presence of IL-6, in the presence of BNZ130-1, and in the presence of IL-6 and BNZ130-1.

The next data set has as its system γc-cytokines. Briefly: Target cytokine spectrum within the γc-family. In kind it is cell-based.
The test system of a further data set is IL-17A and IL-17F. Briefly: Inhibition of IL-17 family members. Conditions: no test described.

No end group written: not given here.

Here are results for three substances from patent US10854312B2, “Selective peptide antagonists” (BIONIZ, LLC, priority 2013, dated 2020).

Turning to LTHLIERSSRAVLQSLLRASRQ [BNZ130-1], the “antagonistic activity on T1165 proliferation in the presence of IL-6” value with IL-6 (Example 11, T1165 cells dependent on IL-6) is recorded as “dose-dependent antagonistic activity”. Further, the “effect on T1165 cell survival” value in the data set on IL-6 (Example 11, with or without IL-6) is reported as “does not affect T1165 survival”.
On to “BNZ gamma: polypeptide SEQ ID NO: 130 (Table 6) of IL-15, IL-2 and IL-9 D-helix fragments; probably the same as BNZ132-1 (IKEFLQSFIHIVQSIINT)”, for which the γc-cytokines not inhibited entry in the data set with γc-cytokines (IL-4, IL-7 and IL-21) is listed as “does not exhibit inhibitory activity”. Also, the γc-cytokines inhibited entry in the data set on γc-cytokines (summary statements, BNZ132-2 and -3 data not shown) was “inhibitory activity against all of IL-2, IL-15 and IL-9”.
Regarding “BNZ17-1: inhibitory polypeptide SEQ ID NO: 144 of IL-17A and IL-17F target region fragments (Table 7) (YSRSTSPWRYHRDRDPNRYPSDLYHAKC)”, the “specific inhibition within the IL-17 family” value with IL-17A and IL-17F is “specifically inhibits IL-17A and IL-17F to the exclusion of the remaining family members”.
